Data on 2 compounds can be found in patent US9840508B2, “N-acyl-(3-substituted)-(8-methyl)-5,6-dihydro-[1,2,4]triazolo[4,3-a] pyrazines as selective NK-3 receptor antagonists, pharmaceutical composition, methods for use in NK-3 receptor-mediated disorders” (EUROSCREEN SA, priority 2013, dated 2017).

Structures are written as SMILES. Where two headings read alike, the source gives them in different places.

As usually defined, the Ki is the equilibrium dissociation constant of an inhibitor or competing ligand from its target.

For one test, the target named is human NK-2 receptor (Homo sapiens (Human), UniProt P21452). Kind of test: Selectivity binding assay, human NK-2 ([125I]-Neurokinin A). Conditions: CHO cell membranes; 0.1 nM [125I]-Neurokinin A; read-out: hNK-2 (Ki). As to the method:
Selectivity of the compounds of the invention was determined over the other human NK receptors, namely NK-1 and NK-2 receptors.
The affinity of compounds of the invention for the NK-2 receptor was evaluated in CHO recombinant cells which express the human NK-2 receptor. Membrane suspensions were prepared from these cells. The following radioligand [^125I]-Neurokinin A (PerkinElmer Cat#NEX252) was used in this assay. Binding assays were performed in a 25 mM HEPES/1 mM CaCl2/5 mM MgCl2/0.5% BSA/10 μg/ml saponin, at pH 7.4. Binding assays consisted of 25 μl of membrane suspension (approximately 3.75 μg of protein/well in a 96 well plate), 50 μl of compound or reference ligand (Neurokinin A) at increasing concentrations (diluted in assay buffer) and 0.1 nM [^125I]-Neurokinin A. The plate was incubated 60 min at 25° C. in a water bath and then filtered over GF/C filters (Perkin Elmer, 6005174, presoaked in assay buffer without saponine for 2 h at room temperature) with a Filtration unit (Perkin Elmer). The radioactivity retained on the filters was measured by using the TopCount-NXT reader (Packard). Competition curves were obtained for compounds of the invention and the concentrations of compounds which displaced 50% of bound radioligand (IC50) were determined and then apparent inhibition constant Ki values were calculated by the following equation: Ki=IC50/(1+[L]/KD) where [L] is the concentration of free radioligand and KD is its dissociation constant at the receptor, derived from saturation binding experiments (Cheng and Prusoff, 1973).

The target in a further test is human NK-3 receptor (Homo sapiens (Human), UniProt P29371). Kind of test: 3H-SB222200 binding competition assay with human NK-3 receptor. As to the method: The affinity of compounds of the invention for the human NK-3 receptor was determined by measuring the ability of compounds of the invention to competitively and reversibly displace a well-characterized NK-3 radioligand in a concentration-dependent manner.
Sequence of human NK-3 receptor (P29371 whole entry): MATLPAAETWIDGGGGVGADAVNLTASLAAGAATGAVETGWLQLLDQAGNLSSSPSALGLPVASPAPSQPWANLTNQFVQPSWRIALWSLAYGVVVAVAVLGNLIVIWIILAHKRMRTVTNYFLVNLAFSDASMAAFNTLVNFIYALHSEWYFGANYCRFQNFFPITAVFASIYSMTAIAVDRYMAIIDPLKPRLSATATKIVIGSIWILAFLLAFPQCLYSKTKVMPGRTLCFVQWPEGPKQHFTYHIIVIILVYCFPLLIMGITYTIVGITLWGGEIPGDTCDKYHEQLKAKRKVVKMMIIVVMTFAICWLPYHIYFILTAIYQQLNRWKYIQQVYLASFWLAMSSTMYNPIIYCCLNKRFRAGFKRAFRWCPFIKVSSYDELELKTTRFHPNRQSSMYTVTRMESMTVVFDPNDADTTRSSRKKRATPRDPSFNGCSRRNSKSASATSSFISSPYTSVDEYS
^3H-SB222200 Binding Competition Assay with Human NK-3 Receptor
The ability of compounds of the invention to inhibit the binding of the NK-3 receptor selective antagonist ^3H-SB222200 was assessed by an in vitro radioligand binding assay. Membranes were prepared from Chinese hamster ovary recombinant cells stably expressing the human NK-3 receptor. The membranes were incubated with 5 nM ^3H-SB222200 (ARC) in a HEPES 25 mM/NaCl 0.1M/CaCl2 1 mM/MgCl2 5 mM/BSA 0.5%/Saponin 10 μg/ml buffer at pH 7.4 and various concentrations of compounds of the invention. The amount of ^3H-SB222200 bound to the receptor was determined after filtration by the quantification of membrane associated radioactivity using the TopCount-NXT reader (Packard).

The subject of a further test is circulating LH levels. The experiment in a line: Castrated male rat model, circulating luteinizing hormone (LH), oral dosing. Conditions: castrated male SD rat; single oral dose less than or equal to 30 mg/kg; p<0.05. The format is in vivo. As to the method: In vivo Assay to Assess Compound Activity in Rat (Oral Dosing)
The effect of compounds of the invention to inhibit luteinizing hormone (LH) secretion is determined by the following biological studies.
Castrated Male Rat Model to Assess the Effect of Compound of Invention on Circulating Levels of Luteinizing Hormone (LH)
In humans and rodents, castration is well-precedented to permit heightened, persistent GnRH signaling and consequent elevation of circulating LH. Thus, a castrated rat model is used to provide a broad index for measurement of LH inhibition as a marker of test compound inhibition of the GnRH signaling pathway.
Castrated adult male Sprague-Dawley (SD) rats (150-175 g) were purchased from Janvier (St Berthevin, France). All animals were housed 2 per cage in a temperature-controlled room (22±2° C.) and 50±5% relative humidity with a 12 hour/12 hour light/dark cycles (lights off at 6 h00 pm). The animals were allowed 3 weeks of postoperative recovery prior to study. Animals were handled on a daily basis. Standard diet and tap water were provided ad libitum. Animal cage litters were changed once a week. […]
After basal sampling (TO) a single dose of compounds of the invention or vehicle was administrated orally to rats. […] Serum LH levels were determined using radioimmunoassay kit from RIAZEN—Rat LH, Zentech (Liège, Belgium). […]

Where [1] appears, read: CHO cell membranes, 5 nM 3H-SB222200, Table 2, read-out: Competitive binding assay with human NK-3 receptor hNK-3 (Ki).
The mark [2] stands for this setting: Table 3 (selectivity table), read-out: hNK-3 (Ki).

Sequence of human NK-2 receptor (P21452 whole entry): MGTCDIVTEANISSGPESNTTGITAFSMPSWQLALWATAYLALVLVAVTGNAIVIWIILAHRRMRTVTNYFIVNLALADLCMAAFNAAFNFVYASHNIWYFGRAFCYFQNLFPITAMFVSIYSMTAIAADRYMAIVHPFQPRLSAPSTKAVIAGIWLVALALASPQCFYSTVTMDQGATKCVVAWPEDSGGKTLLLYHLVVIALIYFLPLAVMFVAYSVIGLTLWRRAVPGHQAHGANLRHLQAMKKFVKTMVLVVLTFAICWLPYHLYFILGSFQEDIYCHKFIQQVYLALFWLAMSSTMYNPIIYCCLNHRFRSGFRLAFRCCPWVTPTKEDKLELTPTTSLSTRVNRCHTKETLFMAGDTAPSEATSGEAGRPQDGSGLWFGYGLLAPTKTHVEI

On to `C[C@@H]1c2nnc(-c3csc(C(F)(F)F)n3)n2CCN1C(=O)c1ccc(F)cc1` [Compound 3, (R)-(4-fluorophenyl)(8-methyl-3-(2-(trifluoromethyl)thiazol-4-yl)-5,6-dihydro-[1,2,4]triazolo[4,3-a]pyrazin-7(8H)-yl)methanone], for which the Ki on human NK-2 receptor is 6600 nM; at human NK-3 receptor (setting [1]), 22 nM; at human NK-3 receptor (setting [2]), 22 nM.

Regarding `Cc1ccc(-c2nnc3n2CCN(C(=O)c2ccc(F)cc2)[C@@H]3C)o1` [Compound 1, (R)-(4-fluorophenyl)(8-methyl-3-(5-methylfuran-2-yl)-5,6-dihydro-[1,2,4]triazolo[4,3-a]pyrazin-7(8H)-yl)methanone], the Ki at human NK-2 receptor stood at 52000 nM; on human NK-3 receptor (setting [1]) it was 48 nM; at human NK-3 receptor (setting [2]) it was 48 nM. Moreover, the “Suppression of circulating LH levels” value in the test on circulating LH levels is “significantly suppressed circulating LH levels”.
